pIC50: −log10 of the molar value.
Experiments:
DMT1 = target: T1, DMT1 (Homo sapiens, UniProt P49281); test: DMT1 activity assay (in vitro); type: cell-based; details: inhibition of DMT1; read-out: IC50 Activity Level
T1 sequence (P49281 1-568): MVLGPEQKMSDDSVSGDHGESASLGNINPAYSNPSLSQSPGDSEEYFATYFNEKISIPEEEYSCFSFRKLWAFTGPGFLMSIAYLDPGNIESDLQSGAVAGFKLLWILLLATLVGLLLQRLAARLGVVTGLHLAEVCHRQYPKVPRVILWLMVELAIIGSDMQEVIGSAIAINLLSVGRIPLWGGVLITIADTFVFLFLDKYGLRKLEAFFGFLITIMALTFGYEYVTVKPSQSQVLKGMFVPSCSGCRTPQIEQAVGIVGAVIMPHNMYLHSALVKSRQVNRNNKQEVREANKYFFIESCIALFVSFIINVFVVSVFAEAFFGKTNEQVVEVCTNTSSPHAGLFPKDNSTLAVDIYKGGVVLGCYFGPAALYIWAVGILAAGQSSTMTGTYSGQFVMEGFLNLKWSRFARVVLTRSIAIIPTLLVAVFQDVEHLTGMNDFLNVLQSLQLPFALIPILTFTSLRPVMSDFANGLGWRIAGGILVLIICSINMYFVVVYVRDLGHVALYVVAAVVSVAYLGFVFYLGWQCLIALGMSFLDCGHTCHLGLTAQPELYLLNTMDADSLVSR
Source text: One such protocol involves the screening of chemical agents for ability to modulate the activity of DMT1 thereby identifying it as a modulating agent. The in vitro activity of DMT1 can be measured in cell based assays by either directly measuring iron flux (using a radioactively labelled iron ^55Fe) or by measuring the fluorescence of a cell permeable iron fluorophore such as calcein. Stable cell lines overexpressing DMT1 are exposed to ^55Fe or loaded with calcein and then compound is applied. […] Alternatively, in another format electrophysiological techniques can be used to measure the current or iron or other metals traversing the cell membrane with DMT1 in a Xenopus oocyte or other cell based system (Gunshin et al., Nature, 1997, 31; 388(6641):482-8).
This example discloses various in vitro assay for testing and profiling test agents against DMT1 stably expressed in cells of either an endogenous or recombinant origin. These assays can use stable cell lines overexpressing DMT1 or intestinal cells and intestinal tissue expressing endogenous DMT1. DMT1 function could also be assessed in other cell types that express DMT1. Of greatest relevance would be the erythrocytes (e.g. K562 cells) or hepatocytes (e.g. […]).
DMT1 function can be assessed in a number of ways, including monitoring fluorescence changes of an iron fluorophore (e.g. calcein), monitoring uptake of radiolabelled iron (^55Fe or ^59Fe) (Picard et al., J. Biol. Chem., 2000, 275(46):35738-45 and Wetli et al., Chem. Biol. 2006 September; 13(9):965-72), or by assessing the current or transport of iron and other metals into the cells or tissues using standard electrophysiological techniques (Gunshin et al., Nature, 1997, 388(6641):482-8.).
Variations of these assays involve alterations of incubation times, the iron status of the cells and tissues (which may be modulated by chemical chelators or by harvesting from iron deficient animals), the metal cation detected and the pH of the reaction can generally be made by conventional techniques known to those skilled in the art.

SMILES: COc1ccc2nc(-n3nc4c(c3O)-c3ccccc3CC4)sc2c1 [Example 4.2, 2-(6-methoxybenzo[d]thiazol-2-yl)-4,5-dihydro-2H-benzo[e]indazol-1-ol]
- melting point: 204 to 205 °C

SMILES: Oc1c2c(nn1-c1ccc(C(F)(F)F)cn1)CCc1ccccc1-2 [Example 1.10, 2-(5-(trifluoromethyl)pyridin-2-yl)-4,5-dihydro-2H-benzo[e]indazol-1-ol]
- melting point: 158 to 159 °C
- pIC50 (DMT1): ≤ 6.00

SMILES: COc1ccc2c(c1)CCc1nn(-c3nc4ccccc4s3)c(O)c1-2 [Example 4.1, 2-(benzo[d]thiazol-2-yl)-7-methoxy-4,5-dihydro-2H-benzo[e]indazol-1-ol]
- melting point: 182 to 183 °C
- pIC50 (DMT1): 6.00 to 7.00

SMILES: Oc1c2c(nn1-c1cc(C(F)(F)F)ccn1)CCc1ccccc1-2 [Example 1.11, 2-(4-(trifluoromethyl)pyridin-2-yl)-4,5-dihydro-2H-benzo[e]indazol-1-ol]
- melting point: 161 to 162 °C
- pIC50 (DMT1): 6.00 to 7.00

SMILES: Cc1ccc(-n2nc3c(c2O)-c2ccccc2CC3)nc1 [Example 2, 2-(5-methylpyridin-2-yl)-4,5-dihydro-2H-benzo[e]indazol-1-ol]
- melting point: 156 to 157 °C
- pIC50 (DMT1): 6.00 to 7.00

SMILES: CC(C)(C)c1csc(-n2nc3c(c2O)-c2ccccc2CC3)n1.Cl [Example 5, 2-(4-tert-butylthiazol-2-yl)-4,5-dihydro-2H-benzo[e]indazol-1-ol hydrochloride]
- melting point: > 250 °C
- pIC50 (DMT1): ≤ 6.00

SMILES: Oc1c2c(nn1-c1nc3ccc(F)cc3s1)CCc1ccccc1-2 [Example 4.3, 2-(6-fluorobenzo[d]thiazol-2-yl)-4,5-dihydro-2H-benzo[e]indazol-1-ol]
- melting point: 246 to 247 °C

SMILES: Oc1c2c(nn1-c1nc3ccccc3s1)CCc1ccccc1-2 [Example 4, 2-(benzo[d]thiazol-2-yl)-4,5-dihydro-2H-benzo[e]indazol-1-ol]
- melting point: 234 to 235 °C

SMILES: N#Cc1ccc2c(c1)CCc1nn(-c3ccccn3)c(O)c1-2 [Example 1.4, 1-hydroxy-2-pyridin-2-yl-4,5-dihydro-2H-benzo[e]indazole-7-carbonitrile]
- melting point: 232 to 233 °C

SMILES: Cc1ccc2nc(-n3nc4c(c3O)-c3ccccc3CC4)sc2c1 [Example 4.4, 2-(6-methylbenzo[d]thiazol-2-yl)-4,5-dihydro-2H-benzo[e]indazol-1-ol]
- melting point: 218 to 219 °C

SMILES: Oc1c2c(nn1-c1ccccn1)CCCc1ccccc1-2 [Example 7, 2-pyridin-2-yl-2,4,5,6-tetrahydro-2,3-diaza-benzo[e]azulen-1-ol]
- melting point: 80 to 81 °C
- pIC50 (DMT1): 6.00 to 7.00

SMILES: Cc1cccc2sc(-n3nc4c(c3O)-c3ccccc3CC4)nc12 [Example 4.5, 2-(4-methylbenzo[d]thiazol-2-yl)-4,5-dihydro-2H-benzo[e]indazol-1-ol]
- melting point: 224 to 225 °C

SMILES: O=C(O)c1ccc2nc(-n3nc4c(c3O)-c3ccccc3CC4)sc2c1 [Example 4.6, 2-(1-hydroxy-4,5-dihydro-2H-benzo[e]indazol-2-yl)benzo[d]thiazole-6-carboxylic acid]
- melting point: > 280 °C

SMILES: COc1ccc2c(c1)-c1c(nn(-c3ccccn3)c1O)CC2 [Example 1.3, 8-methoxy-2-pyridin-2-yl-4,5-dihydro-2H-benzo[e]indazol-1-ol]
- melting point: 116 to 117 °C
- pIC50 (DMT1): ≤ 6.00

SMILES: O=[N+]([O-])c1ccc(-n2nc3c(c2O)-c2ccccc2CC3)nc1 [Example 1.13, 2-(5-nitropyridin-2-yl)-4,5-dihydro-2H-benzo[e]indazol-1-ol]
- melting point: 226 to 227 °C
- pIC50 (DMT1): 6.00 to 7.00

SMILES: N#Cc1ccc(-c2ccc3c(c2)CCc2nn(-c4ccccn4)c(O)c2-3)cc1 [Example 1.9, 4-(1-hydroxy-2-pyridin-2-yl-4,5-dihydro-2H-benzo[e]indazol-7-yl)-benzonitrile]
- melting point: 274 to 275 °C
- pIC50 (DMT1): ≤ 6.00

SMILES: Oc1c2c(nn1-c1ccccn1)CCc1ccccc1-2 [Example 1, 2-pyridin-2-yl-4,5-dihydro-2H-benzo[e]indazol-1-ol]
- melting point: 145 to 146 °C

SMILES: COc1ccc2c(c1)CCc1nn(-c3ccccn3)c(O)c1-2 [Example 1.2, 7-methoxy-2-pyridin-2-yl-4,5-dihydro-2H-benzo[e]indazol-1-ol]
- melting point: 139 to 140 °C

SMILES: Oc1c2c(nn1-c1nc3ccccc3[nH]1)CCc1ccccc1-2 [Example 6, 2-(1H-benzo[d]imidazol-2-yl)-4,5-dihydro-2H-benzo[e]indazol-1-ol]
- melting point: 205 to 206 °C

SMILES: COc1ccc(-c2ccc3c(c2)CCc2nn(-c4ccccn4)c(O)c2-3)cc1 [Example 1.7, 7-(4-methoxyphenyl)-2-pyridin-2-yl-4,5-dihydro-2H-benzo[e]indazol-1-ol]
- melting point: 159 to 160 °C

SMILES: Oc1c2c(nn1-c1ccccn1)CCc1cc(Br)ccc1-2 [Example 1.1, 7-bromo-2-pyridin-2-yl-4,5-dihydro-2H-benzo[e]indazol-1-ol]
- melting point: 164 to 165 °C

SMILES: Oc1c2c(nn1-c1ccccn1)CCc1cc(-c3ccc4c(c3)OCO4)ccc1-2 [Example 1.8, 7-benzo[1,3]dioxol-5-yl-2-pyridin-2-yl-4,5-dihydro-2H-benzo[e]indazol-1-ol]
- melting point: 205 to 206 °C
- pIC50 (DMT1): 6.00 to 7.00

SMILES: Oc1c2c(nn1-c1ncccc1C(F)(F)F)CCc1ccccc1-2 [Example 1.12, 2-(3-(trifluoromethyl)pyridin-2-yl)-4,5-dihydro-2H-benzo[e]indazol-1-ol]
- melting point: 174 to 175 °C
- pIC50 (DMT1): ≤ 6.00

SMILES: Cc1ccc(-c2ccc3c(c2)CCc2nn(-c4ccccn4)c(O)c2-3)cc1 [Example 1.6, 2-pyridin-2-yl-7-p-tolyl-4,5-dihydro-2H-benzo[e]indazol-1-ol]
- melting point: 177 to 178 °C

SMILES: [O-][n+]1ccccc1-n1nc2c(c1O)-c1ccccc1CC2 [Example 3, 2-(1-hydroxy-4,5-dihydro-2H-benzo[e]indazol-2-yl)pyridine 1-oxide]
- melting point: 155 to 156 °C
